Key:
[1] = tested on: A549 (lung adenocarcinoma); experiment: MTS cytotoxicity assay, 72 h, A549; format: cell-based; conditions: Homo sapiens, A549, 72 h
Experimental: (§1) Based on the preliminary results and tests of a larger library of known triterpenoids, a small set of 2-substituted lupane and 18α-oleanane derivatives was designed and synthesized. As the first step, the cytotoxic activity of the synthesized derivatives was assessed using an MTS assay following 72 h of treatment (Table 1). Selected cell lines A549 (lung adenocarcinoma) and DU-145 (prostate cancer) are both dependent on Hh signaling. In addition, K562 (chronic myelogenous leukemia) was included as a cell line sensitive to Hh inhibitors[32] and a type of hematological malignancy with active Hh signaling.[33] MRC-5 lung fibroblasts and BJ human skin fibroblasts cell lines were used to evaluate the toxicity against nontumor cells. Compounds were also tested using the standard panel of other cancer cell lines, as described in our earlier work (Table 1).[27]
(§2) The human prostate tumor-derived cell line DU145 was obtained from ATCC (American Type Culture Collection) and cultured in RPMI 1640 (Roswell Park Memorial Institute) medium supplemented with 10% (v/v) fetal bovine serum (FBS). Human prostate tumor-derived LNCaP cells were obtained from ATCC and cultured in RPMI 1640 medium supplemented with 10% FBS. The human nonsmall cell lung carcinoma (NSCLC)-derived cell line HOP-62 was obtained from the DSMZ (German Collection of Microorganisms and Cell Cultures) and cultured in RPMI 1640 medium supplemented with 10% FBS. The human nonsmall cell lung carcinoma-derived cell line NCI-H322 was obtained from ECACC (European Collection of Authenticated Cell Cultures) and cultured in RPMI 1640 medium supplemented with 10% FBS. The human nonsmall cell lung carcinoma-derived cell line NCI-H522 was obtained from ATCC and cultured in RPMI 1640 medium supplemented with 10% FBS. The human lung tumor-derived cell line A549 was obtained from ATCC and cultured in Dulbecco’s Modified Eagle’s Medium (DMEM) supplemented with 10% FBS. The human medulloblastoma-derived cell line DAOY was obtained from ATCC and cultured in Eagle’s Minimum Essential Medium (EMEM) supplemented with 10% FBS. The human glioblastoma-derived cell line T98G was obtained from ATCC and cultured in EMEM medium supplemented with 10% FBS, 1 mmol/L sodium pyruvate, and 1 mmol/L nonessential amino acid mixture. All the above-mentioned cell lines were cultured at 37 °C in an atmosphere of 5% CO2 with 95% humidity. The cytotoxicity MTS assays were performed using MTS (3-(4,5-dimethylthiazol-2-yl)-5-(3-carboxymethoxyphenyl)-2-(4-sulfophenyl)-2H-tetrazolium) tetrazolium salt. Briefly, cells were seeded in a 384-well transparent plate in a volume of 25 μL and a concentration of 15,000 cells/mL (DU145, LNCaP, HOP-62, A549, DAOY, T98G) or 30,000 cells/mL (NCI-H322, NCI-H522). The next day, cells were exposed to compounds in a concentration range of 50–0.0975 μmol/L (dilution factor 2) and cultured in the presence of the compounds for 72 h. After 72 h, 5 μL of MTS/phenazine methosulfate solution was pipetted into each well and incubation continued for 1–4 h. Finally, the absorbance at 490 nm was measured using an EnVision multifunctional modular reader (PerkinElmer). The IC50 value was determined using Dotmatics software.

DU-145 (prostate cancer) = experiment: MTS cytotoxicity assay, 72 h, DU-145; format: cell-based, human; conditions: Homo sapiens, DU-145, 72 h
Experimental: as §1, §2

[2] = tested on: K562 (chronic myelogenous leukemia); experiment: MTS cytotoxicity assay, 72 h, K562; format: cell-based; conditions: Homo sapiens
Experimental: as §1, §2

K562-TAX = experiment: MTS cytotoxicity assay, 72 h, K562-TAX; format: cell-based
Experimental: as §1, §2

HCT 116 = experiment: MTS cytotoxicity assay, 72 h, HCT 116; format: cell-based; conditions: Homo sapiens, HCT-116, 72 h
Experimental: as §1, §2

HCT116 p53–/– = experiment: MTS cytotoxicity assay, 72 h, HCT116 p53–/–; format: cell-based; conditions: Homo sapiens, HCT-116, 72 h
Experimental: as §1, §2

U2OS = experiment: MTS cytotoxicity assay, 72 h, U2OS; format: cell-based; conditions: Homo sapiens
Experimental: as §1, §2

CCRF-CEM = experiment: MTS cytotoxicity assay, 72 h, CCRF-CEM; format: cell-based; conditions: for IC50: Homo sapiens, CCRF-CEM, 72 h, MTS
Experimental: as §1, §2

CEM-DNR = experiment: MTS cytotoxicity assay, 72 h, CEM-DNR; format: cell-based; conditions: Homo sapiens
Experimental: as §1, with “1).[27] […]” for “1).[27]”

[3] = tested on: BJ human skin fibroblasts; experiment: MTS cytotoxicity assay, 72 h, BJ fibroblasts; format: cell-based; conditions: normal fibroblasts; for IC50: Homo sapiens, Skin fibroblast
Experimental: as §1, §2

MRC-5 lung fibroblasts = experiment: MTS cytotoxicity assay, 72 h, MRC-5 fibroblasts; format: cell-based, human; conditions: normal fibroblasts; for IC50: Homo sapiens, MRC5, 72 h
Experimental: as §1, §2

[4] = IC50 of CCRF-CEM line vs average of both fibroblasts (BJ and MRC-5), Table 1
[5] = CCRF-CEM vs average of BJ and MRC-5, full Table S1

Compound | IC50 ([1]; Table 1) | IC50 (DU-145 (prostate cancer); Table 1) | IC50 (DU-145 (prostate cancer); full Table S1) | IC50 ([2]; Table 1) | IC50 (K562-TAX; Table 1) | IC50 (HCT 116; Table 1) | IC50 (HCT 116; full Table S1) | IC50 (HCT116 p53–/–; Table 1) | IC50 (U2OS; Table 1) | IC50 (CCRF-CEM; Table 1) | IC50 (CEM-DNR; full Table S1) | IC50 ([1]; full Table S1) | IC50 ([2]; full Table S1) | IC50 (K562-TAX; full Table S1) | IC50 (HCT116 p53–/–; full Table S1) | IC50 (U2OS; full Table S1) | SI (selectivity index) (CCRF-CEM; [5]) | IC50 (CCRF-CEM; full Table S1) | IC50 ([3]; full Table S1) | IC50 (MRC-5 lung fibroblasts; full Table S1) | further results
C=C(C)[C@@H]1CC[C@]2(C(=O)O)CC[C@]3(C)C(CCC4[C@@]5(C)C=C(c6cncnc6)C(=O)C(C)(C)C5CC[C@]43C)C12 (some centres unmarked) [Compound 11i, 2-(Pyrimidin-5-yl)-3-oxolupa-1,20(29)-dien-28-oic acid] | > 50 µM | 18 µM | 17.5 µM | > 50 µM | 25 µM | 35 µM | 34.6 µM | 41 µM | > 50 µM | 19.7 µM | 41.8 µM |  |  |  |  |  |  |  |  |  | SI (selectivity index) (CCRF-CEM; [4]): >2.5; IC50 (CEM-DNR; Table 1): 42 µM; IC50 ([3]; Table 1): > 50 µM; IC50 (MRC-5 lung fibroblasts; Table 1): > 50 µM
C=C(C)[C@@H]1CC[C@]2(C(=O)OCc3ccccc3)CC[C@]3(C)C(CCC4[C@@]5(C)C=C(c6cc7ccccc7s6)C(=O)C(C)(C)C5CC[C@]43C)C12 (some centres unmarked) [Compound 10k, Benzyl 2-(Benzo[b]thien-2-yl)-3-oxolupa-1,20(29)-dien-28-oate] |  |  | > 50 µM |  |  |  | > 50 µM |  |  |  | > 50 µM | > 50 µM | > 50 µM | > 50 µM | > 50 µM | > 50 µM | > 1.0 | > 50 µM | > 50 µM | > 50 µM | 
CC1(C)C(=O)C(c2ccoc2)=C[C@@]2(C)C1CC[C@]1(C)C2CCC2C3[C@H]4OC[C@@]3(CCC4(C)C)CC[C@]21C (stereo partly drawn) [Compound 4b, 2-(Furan-3-yl)-19β,28-epoxyolean-1-en-3-one] |  |  | > 50 µM |  |  |  | > 50 µM |  |  |  | > 50 µM | > 50 µM | > 50 µM | > 50 µM | > 50 µM | > 50 µM | > 1.0 | > 50 µM | > 50 µM | > 50 µM | 
C=C(C)[C@@H]1CC[C@]2(C(=O)OCc3ccccc3)CC[C@]3(C)C(CCC4[C@@]5(C)C=C(c6ccncc6)C(=O)C(C)(C)C5CC[C@]43C)C12 (some centres unmarked) [Compound 10h, Benzyl 2-(4-Pyridinyl)-3-oxolupa-1,20(29)-dien-28-oate] |  |  | > 50 µM |  |  |  | > 50 µM |  |  |  | > 50 µM | > 50 µM | > 50 µM | > 50 µM | > 50 µM | > 50 µM | > 1.0 | > 50 µM | > 50 µM | > 50 µM | 
C=C(C)[C@@H]1CC[C@]2(C(=O)O)CC[C@]3(C)C(CCC4[C@@]5(C)C=C(c6ccncc6)C(=O)C(C)(C)C5CC[C@]43C)C12 (some centres unmarked) [Compound 11h, 2-(Pyridin-4-yl)-3-oxolupa-1,20(29)-dien-28-oic acid] | 21 µM | 11 µM | 10.8 µM | > 50 µM | 11 µM | 25 µM | 25.1 µM | 31 µM | 28 µM | 5.2 µM |  | 21.3 µM |  | 10.8 µM | 30.6 µM | 28.4 µM |  |  |  |  | SI (selectivity index) (CCRF-CEM; [4]): >9.5; IC50 (CEM-DNR; Table 1): 17 µM; IC50 ([3]; Table 1): > 50 µM; IC50 BJ ([3]; Table 1): below the detection limit; IC50 (MRC-5 lung fibroblasts; Table 1): > 50 µM; IC50 MRC-5 (MRC-5 lung fibroblasts; Table 1): below the detection limit
CC1(C)C(=O)C(c2ccc3c(c2)OCCO3)=C[C@@]2(C)C1CC[C@]1(C)C2CCC2C3[C@H]4OC[C@@]3(CCC4(C)C)CC[C@]21C (stereo partly drawn) [Compound 4j, 2-(1,4-Benzodioxan-6-yl)-19β,28-epoxyolean-1-en-3-one] |  |  | > 50 µM |  |  |  | > 50 µM |  |  |  | > 50 µM | > 50 µM | > 50 µM | > 50 µM | > 50 µM | > 50 µM | > 1.0 | > 50 µM | > 50 µM | > 50 µM | 
C=C(C)[C@@H]1CC[C@]2(C(=O)O)CC[C@]3(C)C(CCC4[C@@]5(C)C=C(c6ccc7c(c6)OCCO7)C(=O)C(C)(C)C5CC[C@]43C)C12 (some centres unmarked) [Compound 11j, 2-(1,4-Benzodioxan)-3-oxolupa-1,20(29)-dien-28-oic acid] | 14 µM | 7 µM |  | 7.5 µM | 17 µM | 22 µM | 22.1 µM | 21 µM | 22 µM | 4.9 µM |  | 13.5 µM |  | 16.5 µM | 20.9 µM | 21.9 µM |  |  |  | 27.8 µM | SI (selectivity index) (CCRF-CEM; [4]): >7.9; IC50 (CEM-DNR; Table 1): 24 µM; IC50 ([3]; Table 1): > 50 µM; IC50 (MRC-5 lung fibroblasts; Table 1): 28 µM
C=C(C)[C@@H]1CC[C@]2(C(=O)OCc3ccccc3)CC[C@]3(C)C(CCC4[C@@]5(C)C=C(c6cccnc6)C(=O)C(C)(C)C5CC[C@]43C)C12 (some centres unmarked) [Compound 10g, Benzyl 2-(3-Pyridinyl)-3-oxolupa-1,20(29)-dien-28-oate] |  |  | > 50 µM |  |  |  | > 50 µM |  |  |  | > 50 µM | > 50 µM | > 50 µM | > 50 µM | > 50 µM | > 50 µM | > 1.0 | > 50 µM | > 50 µM | > 50 µM | 
CC1(C)C(=O)C(c2cc3ccccc3s2)=C[C@@]2(C)C1CC[C@]1(C)C2CCC2C3[C@H]4OC[C@@]3(CCC4(C)C)CC[C@]21C (stereo partly drawn) [Compound 4k, 2-(Benzo[b]thien-2-yl)-19β,28-epoxyolean-1-en-3-one] |  |  | > 50 µM |  |  |  | > 50 µM |  |  |  | > 50 µM | > 50 µM | > 50 µM | > 50 µM | > 50 µM | > 50 µM | > 1.0 | > 50 µM | > 50 µM | > 50 µM | 
CC1(C)C(=O)C(c2ccc(Cl)s2)=C[C@@]2(C)C1CC[C@]1(C)C2CCC2C3[C@H]4OC[C@@]3(CCC4(C)C)CC[C@]21C (stereo partly drawn) [Compound 4e, 2-(5-Chlorothiophen-2-yl)-19β,28-epoxyolean-1-en-3-one] |  |  | > 50 µM |  |  |  | > 50 µM |  |  |  | > 50 µM | > 50 µM | > 50 µM | > 50 µM | > 50 µM | > 50 µM | > 1.0 | > 50 µM | > 50 µM | > 50 µM | 

From PMC11923649, “Novel C-2 Aromatic Heterocycle-Substituted Triterpenoids Inhibit Hedgehog Signaling in GLI1 Overexpression Cancer Cells” (ACS Omega, 2025)
